Test results: patent US10253002B2, “Compounds and methods of treating infections” (Neoculi Pty Ltd., priority 2013, dated 2019)
In brackets after ≈: the same amount, converted by molar mass. Several values for one entry are separate records, joined by “and”; a condition that tells them apart may be missing. Equal entries are not always repeated.

Legend:
Assay in all cases: Broth microdilution MIC, Example 7 (NCL812 and analogues)
MRSA = assay type: cell-based, Staphylococcus aureus; conditions: for activity against MRSA among analogues: MIC testing, two MRSA strains
Summary of the method: (§1)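 Turbidity read visually and then at 600 nm defined the MIC (μg/ml), comparing drug-containing wells with a growth-control well lacking antimicrobial. Testing followed the CLSI broth microdilution method, in duplicate, using two strains per organism group.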

VRE = assay type: cell-based, Enterococcus spp.
Summary of the method: as §1

Escherichia coli = assay type: cell-based; conditions: 24 hours
Pseudomonas aeruginosa = assay type: cell-based; conditions: 24 hours
[1] = MRSA 1, 24 hours, duplicate lines per compound
[2] = MRSA 2, 24 hours, duplicate lines per compound
[3] = VRE 1, 24 hours, duplicate lines per compound
[4] = VRE 2, 24 hours, duplicate lines per compound
[5] = E. coli, duplicate lines per compound
[6] = P. aeruginosa, duplicate lines per compound

| SMILES | MIC (μg/ml) at 24 hours, MRSA 1 (MRSA; [1]) | MIC (μg/ml) at 24 hours, MRSA 2 (MRSA; [2]) | MIC (μg/ml) at 24 hours, VRE 1 (VRE; [3]) [µg/mL] | MIC (μg/ml) at 24 hours, VRE 2 (VRE; [4]) [µg/mL] | MIC (μg/ml) at 24 hours, E. coli (Escherichia coli; [5]) [µg/mL] | MIC (μg/ml) at 24 hours, P. aeruginosa (Pseudomonas aeruginosa; [6]) [µg/mL] | also measured |
| --- | --- | --- | --- | --- | --- | --- | --- |
| Cl.N=C(NN=Cc1c(Cl)cccc1Cl)NN=Cc1c(Cl)cccc1Cl [NCL 137] | >128 µg/mL | >128 µg/mL | >128 | >128 | >128 | >128 |  |
| Cl.N=C(NN=C(C(=O)O)c1ccccc1)NN=C(C(=O)O)c1ccccc1 [NCL 167] | >128 µg/mL | >128 µg/mL | >128 | >128 | >128 | >128 |  |
| Cl.N=C(NN=Cc1cc(O)c(O)cc1O)NN=Cc1cc(O)c(O)cc1O [NCL104] | 64 µg/mL | 64 µg/mL | 128 | >128 | >128 | >128 | activity against MRSA among analogues (MRSA): greatest activity |
| CN(C)c1ccc(/C=N/Nc2cc(N/N=C/c3ccc(N(C)C)cc3)nc(N)n2)cc1 [NCL201] |  |  |  |  |  |  | activity against MRSA among analogues (MRSA): greatest activity; MIC (μg/ml) at 24 hours, MRSA 1 (MRSA; MRSA 1, 24 hours): 32 µg/mL and 64 µg/mL; MIC (μg/ml) at 24 hours, MRSA 2 (MRSA; MRSA 2, 24 hours): 16 µg/mL and 32 µg/mL; MIC (μg/ml) at 24 hours, VRE 1 (VRE; VRE 1, 24 hours): >128 µg/mL; MIC (μg/ml) at 24 hours, VRE 2 (VRE; VRE 2, 24 hours): >128 µg/mL; MIC (μg/ml) at 24 hours, E. coli (Escherichia coli; E. coli): >128 µg/mL; MIC (μg/ml) at 24 hours, P. aeruginosa (Pseudomonas aeruginosa; P. aeruginosa): >128 µg/mL |
| CCCCC(=NNC(=N)NN=C(CCCC)c1ccc(Cl)cc1)c1ccc(Cl)cc1.Cl [NCL 154] | >128 µg/mL | >128 µg/mL | >128 | >128 | >128 | >128 |  |
| Cl.N=C(NN=Cc1ccc(F)c(F)c1)NN=Cc1ccc(F)c(F)c1 [NCL 123] | 16 µg/mL and 32 µg/mL | 4 µg/mL and 8 µg/mL | 4 | 4 | >128 | >128 |  |
| CC(=NNC(=N)NN=C(C)c1ccc(N2CCNCC2)cc1)c1ccc(N2CCNCC2)cc1.Cl [NCL 161] | 64 µg/mL and 128 µg/mL | 128 µg/mL | 128 | 128 | >128 | >128 |  |
| Nc1nc(N/N=C/c2ccccc2O)nc(N/N=C/c2ccccc2O)n1 [NCL207] |  |  |  |  |  |  | activity against MRSA among analogues (MRSA): greatest activity; MIC (μg/ml) at 24 hours, MRSA 1 (MRSA; MRSA 1, 24 hours): 16 µg/mL and 32 µg/mL; MIC (μg/ml) at 24 hours, MRSA 2 (MRSA; MRSA 2, 24 hours): 32 µg/mL (≈ 87.8 µM); MRSA (MRSA; bioassay ranking, MRSA): 28 µg/mL; MIC (μg/ml) at 24 hours, VRE 1 (VRE; VRE 1, 24 hours): >128 µg/mL; MIC (μg/ml) at 24 hours, VRE 2 (VRE; VRE 2, 24 hours): >128 µg/mL; MIC (μg/ml) at 24 hours, E. coli (Escherichia coli; E. coli): >128 µg/mL; MIC (μg/ml) at 24 hours, P. aeruginosa (Pseudomonas aeruginosa; P. aeruginosa): >128 µg/mL |
| NC(=O)N/N=C/c1cccc(Cl)c1 [NCL055] |  |  |  |  |  |  | MIC (μg/ml) at 24 hours, MRSA 1 (MRSA; isolate MRSA 1, 24 hours, 1st and 2nd replicate rows): >128 µg/mL; MIC (μg/ml) at 24 hours, MRSA 2 (MRSA; isolate MRSA 2, 24 hours, 1st and 2nd replicate rows): >128 µg/mL; MIC (μg/ml) at 24 hours, VRE 1 (VRE; isolate VRE 1, 24 hours, 1st and 2nd replicate rows): >128 µg/mL; MIC (μg/ml) at 24 hours, VRE 2 (VRE; isolate VRE 2, 24 hours, 1st and 2nd replicate rows): >128 µg/mL; MIC (μg/ml) at 24 hours, E. coli (Escherichia coli; 1st and 2nd replicate rows): >128 µg/mL; MIC (μg/ml) at 24 hours, P. aeruginosa (Pseudomonas aeruginosa; 1st and 2nd replicate rows): >128 µg/mL |
| COc1ccc(C=NNC(=N)NN=Cc2ccc(OC)c(OC)c2)cc1OC.Cl [NCL 115] | >128 µg/mL | >128 µg/mL | >128 | >128 | >128 | >128 |  |
| Nc1nc(N/N=C/c2ccc(F)c(F)c2)cc(N/N=C/c2ccc(F)c(F)c2)n1 [NCL222] |  |  |  |  |  |  | MIC (μg/ml) at 24 hours, MRSA 1 (MRSA; MRSA 1, 24 hours): >128 µg/mL; MIC (μg/ml) at 24 hours, MRSA 2 (MRSA; MRSA 2, 24 hours): >128 µg/mL; MIC (μg/ml) at 24 hours, VRE 1 (VRE; VRE 1, 24 hours): >128 µg/mL; MIC (μg/ml) at 24 hours, VRE 2 (VRE; VRE 2, 24 hours): >128 µg/mL; MIC (μg/ml) at 24 hours, E. coli (Escherichia coli; E. coli): >128 µg/mL; MIC (μg/ml) at 24 hours, P. aeruginosa (Pseudomonas aeruginosa; P. aeruginosa): >128 µg/mL |
